Test results reported in PMC3443238, “Synthesis and Antiangiogenic Activity of N-Alkylated Levamisole Derivatives” (PLoS ONE, 2012).
Where a name gives a salt, the structure may show the parent alone. Each block holds one compound with its values, some of them ahead of it.

What was measured:
[1] = system: human umbilical vein endothelial cells (HUVECs) in co-culture with normal human dermal fibroblasts (NHDF); assay: in vitro angiogenesis assay, HUVEC-NHDF co-culture, CD31 immunostaining; format: cell-based; conditions: for inhibition of angiogenesis compared with (S)-levamisole hydrochloride (1): Figure 5, Table 1
Procedure: The antiangiogenic effects of the compounds were determined in a previously developed assay, designed to evaluate the growth and differentiation of human umbilical vein endothelial cells (HUVECs) in co-culture with normal human dermal fibroblasts (NHDF). […] The cluster morphology known from (S)-levamisole, was also observed for tetramisole (2) (Figure 5B and Table 1), p-bromolevamisole (3) (Figure 5C and Table 1), and N-methyllevamisoles (7a, b), with the latter mentioned showing a slightly more pronounced effect (Figure 5E and F, Figure 6 A–D, Table 1). […] Compound 4 (Figure 5D and Table 1), on the other hand, inhibited the capillary network formation to give small cords exclusively, which is reminiscent of the effect of suramin (5) (Figure 5N and Table 1), another well-known angiogenesis inhibitor [44], [51].
Co-culture cell assays were performed according to a method described previously, [44]. Briefly, 10^3 NHDFs were cultured in each well of a 96-well microtiter plate in NHDF standard medium (100 μL, FGM-2 Bullet kit) at 37°C in an atmosphere containing 5% CO2. After 3 days the medium was removed and 10^3 HUVECs were seeded onto the NHDF in TFSM2 medium (135 μL). The samples of the individual compounds were prepared by weight and dissolved in a concentration of […] in DMSO, PBS, or Milli-Q water followed by pH adjustment, and sterile filtration through 0.22 μm filters. Medium, buffer controls or test samples of 15 µL were added to each well containing the HUVEC–NHDF co-culture and were incubated for 3 days. Experiments were repeated 2–4 times with identical results.
HUVEC and fibroblasts were stained with a CD31 antibody according to the method previously described, [44]. Briefly, the cells were washed with PBS, fixed with ethanol, blocked with TTN buffer, incubated with mouse anti-human CD31 diluted 1∶250 in TTN buffer, washed in TTN buffer and incubated with alkaline phosphatase-conjugated goat anti-mouse IgG diluted 1∶1000 in TTN buffer. Bound antibody was subsequently visualised with BCIP/NBT and inspected in an Olympus IX70 microscope and photographed with an Olympus DP12 digital camera (Magnification: 40x). Image analysis was carried out using the program AnalySIS (Soft Imaging Systems, Münster, Germany).

[2] = target: T1, human placenta alkaline phosphatase (HPAP) (Homo sapiens, UniProt P05187); assay: Alkaline phosphatase assay (p-nitrophenyl phosphate), human placenta enzyme; format: biochemical
T1 construct: alkaline phosphatase (0.01 U/mL) from human placenta or bovine kidneys; from tissue; host or cells: human placenta
T1 sequence (P05187 23-506 limits assumed): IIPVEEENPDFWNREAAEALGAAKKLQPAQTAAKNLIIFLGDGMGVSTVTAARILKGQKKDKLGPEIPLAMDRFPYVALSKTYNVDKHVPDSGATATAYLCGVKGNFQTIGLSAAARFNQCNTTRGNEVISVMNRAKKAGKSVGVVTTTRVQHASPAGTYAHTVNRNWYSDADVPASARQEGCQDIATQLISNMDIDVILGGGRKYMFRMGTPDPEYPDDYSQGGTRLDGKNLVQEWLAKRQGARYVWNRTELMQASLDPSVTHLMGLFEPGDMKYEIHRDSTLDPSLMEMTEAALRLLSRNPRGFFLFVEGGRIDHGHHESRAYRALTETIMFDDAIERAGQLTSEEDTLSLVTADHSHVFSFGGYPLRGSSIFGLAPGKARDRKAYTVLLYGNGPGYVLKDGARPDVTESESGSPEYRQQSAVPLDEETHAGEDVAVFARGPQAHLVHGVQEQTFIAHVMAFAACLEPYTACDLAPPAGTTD
Procedure: (§1) The levamisole derivatives were diluted to 2.5, 5 and 10 mM in DMSO. Samples (10 µL) and 90 µL solution of alkaline phosphatase (0.01 U/mL) from human placenta or bovine kidneys diluted in substrate buffer were added to a 96-well microtiter plate and incubated for 35 minutes at room temperature. Hereafter, 100 µL p-nitrophenyl phosphate (2 mg/mL) were added, and the plate was read at 405 nm with background subtraction at 650 nm on a Versamax Elisa reader (Molecular Devices, Sunnyvale, CA, USA) after 24 and 35 min. Results were obtained as the mean of double determinations. The EC50 values were read from the curve at half maximal absorbance.

[3] = target: T2, bovine kidney tissue non-specific alkaline phosphatase (TNAP) (Bos taurus, UniProt P09487); assay: Alkaline phosphatase assay (p-nitrophenyl phosphate), bovine kidney enzyme; format: biochemical
T2 construct: alkaline phosphatase (0.01 U/mL) from human placenta or bovine kidneys; from tissue; host or cells: bovine kidneys
T2 sequence (P09487 18-499 limits assumed): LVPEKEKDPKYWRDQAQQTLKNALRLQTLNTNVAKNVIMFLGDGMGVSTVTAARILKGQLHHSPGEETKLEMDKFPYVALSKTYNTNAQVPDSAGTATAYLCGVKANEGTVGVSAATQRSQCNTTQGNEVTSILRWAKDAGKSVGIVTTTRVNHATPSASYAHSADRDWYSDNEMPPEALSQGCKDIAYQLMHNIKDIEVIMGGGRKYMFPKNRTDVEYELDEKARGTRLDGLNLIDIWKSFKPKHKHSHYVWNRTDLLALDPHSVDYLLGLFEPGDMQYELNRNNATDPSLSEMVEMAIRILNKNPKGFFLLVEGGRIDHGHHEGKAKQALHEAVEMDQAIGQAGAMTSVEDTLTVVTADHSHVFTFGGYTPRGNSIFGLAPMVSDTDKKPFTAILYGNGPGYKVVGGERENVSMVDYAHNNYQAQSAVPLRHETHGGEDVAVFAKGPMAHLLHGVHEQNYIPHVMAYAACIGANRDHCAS
Procedure: as §1

[4] = target: T3, sirtuin 1 (SIRT1) (Homo sapiens, UniProt Q96EB6); assay: SIRT1 inhibition assay (Fluor-de-Lys fluorogenic); format: biochemical; conditions: for inhibition of SIRT1 deacetylase activity: standard fluorogenic assay in vitro
T3 construct: purchased Biomol BML-AK555
T3 sequence (Q96EB6 whole entry): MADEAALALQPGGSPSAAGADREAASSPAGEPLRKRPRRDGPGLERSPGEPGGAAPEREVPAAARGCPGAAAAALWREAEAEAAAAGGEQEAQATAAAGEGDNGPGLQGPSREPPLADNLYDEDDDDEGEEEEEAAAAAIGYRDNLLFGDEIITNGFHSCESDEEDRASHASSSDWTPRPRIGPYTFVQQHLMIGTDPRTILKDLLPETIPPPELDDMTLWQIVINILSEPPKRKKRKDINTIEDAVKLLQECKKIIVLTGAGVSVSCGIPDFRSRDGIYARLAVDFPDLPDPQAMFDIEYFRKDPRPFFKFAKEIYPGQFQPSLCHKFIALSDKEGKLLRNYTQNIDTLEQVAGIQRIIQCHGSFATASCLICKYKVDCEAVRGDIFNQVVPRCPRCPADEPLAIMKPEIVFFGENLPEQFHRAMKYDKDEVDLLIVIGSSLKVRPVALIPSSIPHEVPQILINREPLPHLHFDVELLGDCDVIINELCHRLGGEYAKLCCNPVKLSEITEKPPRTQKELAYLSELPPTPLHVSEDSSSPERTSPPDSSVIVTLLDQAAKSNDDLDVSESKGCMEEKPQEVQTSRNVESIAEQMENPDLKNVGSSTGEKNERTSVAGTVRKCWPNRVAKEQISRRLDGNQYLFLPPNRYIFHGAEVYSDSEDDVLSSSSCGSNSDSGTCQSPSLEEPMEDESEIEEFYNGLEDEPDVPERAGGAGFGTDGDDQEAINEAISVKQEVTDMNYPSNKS
Procedure: The assay was performed according to protocols provided by the supplier (Biomol, BML-AK555). Briefly, the dose–response experiments were performed in black low binding NUNC 96-well microtiter plates. The dilution series were prepared in Milli-Q water from 100 mM DMSO stock solutions. Fluor-de-Lys SIRT1 substrate (250 μM), NAD^+ ([…]), and SIRT1 (2 U/well) were incubated in SIRT assay buffer prepared as described in the Biomol product sheets [Tris/Cl (50 mM), NaCl (137 mM), KCl (2.7 mM), MgCl2 (1 mM), pH 8.0, 1 mg/mL bovine serum albumin] in the presence or absence of the appropriate dilution of compound 7a or suramin. After 1 hour at 37°C, nicotinamide (2 mM) and developer (50 μL, 2×) were added, and the assay development was allowed to proceed for 15–30 minutes at room temperature, before the plate was read using a Tecan plate reader with excitation at 360 nm and emission at 460 nm. Two individual assays were performed in duplicate.

[5] = target: T3, sirtuin 1 (SIRT1); assay: SIRT1 activation assay (Fluor-de-Lys fluorogenic); format: biochemical; conditions: Figure 7
Procedure: The assay was essentially performed as described above for the deacetylase inhibition, but with different concentrations of enzyme and substrate [Fluor-de-Lys SIRT1 substrate (25 μM), NAD^+ (25 μM), SIRT1 (1 U/well)], and using resveratrol as positive control. Two individual assays were performed in duplicate.

[6] = 1 mM, medium control 10.2, DMSO 8.4
[7] = concentration not given, results not shown

Compound: c1ccc(C2CN3CCSC3=N2)cc1 (racemic) [Compound 2, (±)-levamisole, reference compound]
Grading ([1]; 1 mM): ++ (clusters with area >4%)
Morphology ([1]; 1 mM): Clusters
Area % (percent of the area covered by HUVEC as observed by CD31 staining) [1, 6]: 8.0%
inhibition of angiogenesis compared with (S)-levamisole hydrochloride (1) [1]: same effect as the enantiomerically pure parent compound
IC50 [2]: 1200 µM
IC50 [3]: 1000 µM

Compound: O=C(O)CN(CCO)CCO [BICINE, reference compound]
effect in the angiogenesis assay ([1]; 10 mM): Neither BIS-TRIS nor BICINE showed any effects

Compound: OCCN(CCO)C(CO)(CO)CO [BIS-TRIS, reference compound]
effect in the angiogenesis assay ([1]; 10 mM): Neither BIS-TRIS nor BICINE showed any effects

IC50 [2]: 700 µM
IC50 [3]: > 2000 µM
Compound: Brc1ccc([C@H]2CN3CCSC3=N2)cc1 [Compound 3, (–)-p-bromolevamisole oxalate, reference compound]
Grading ([1]; 1 mM): ++++ (clusters with area <4%)
Morphology ([1]; 1 mM): Clusters
Area % (percent of the area covered by HUVEC as observed by CD31 staining) [1, 6]: 3.4%
inhibition of angiogenesis compared with (S)-levamisole hydrochloride (1) [1]: more potent than (S)-levamisole hydrochloride

Compound: Nc1ccc(-c2cn3c(n2)SCC3)cc1 [Compound 4, 4-(2,3-dihydroimidazo-[2,1-b]thiazol-6-yl)aniline, reference compound]
Grading ([1]; 1 mM): +++ (cords with area <4%)
Morphology ([1]; 1 mM): Cords
Area % (percent of the area covered by HUVEC as observed by CD31 staining) [1, 6]: 2.0%
inhibition of angiogenesis compared with (S)-levamisole hydrochloride (1) [1]: more potent than (S)-levamisole hydrochloride

IC50 [3]: > 2000 µM
inhibition at 1 µM ([4]; read-out: SIRT1 inhib. (1 μM)): > 90%
inhibition of SIRT1 deacetylase activity [4]: potently inhibited SIRT1
Compound: Cc1ccc(C(=O)Nc2ccc(S(=O)(=O)O)c3cc(S(=O)(=O)O)cc(S(=O)(=O)O)c23)cc1NC(=O)c1cccc(NC(=O)Nc2cccc(C(=O)Nc3cc(C(=O)Nc4ccc(S(=O)(=O)O)c5cc(S(=O)(=O)O)cc(S(=O)(=O)O)c45)ccc3C)c2)c1 [Compound 5, suramin, reference compound]
Morphology ([1]; 1 mM): Cords
Area % (percent of the area covered by HUVEC as observed by CD31 staining) [1, 6]: 2.2%

Compound: C[N+]1=C2SCCN2C[C@@H]1c1ccccc1 [Compound 7a, N-methyllevamisole triflate]
Grading ([1]; 1 mM): ++++ (clusters with area <4%)
Morphology ([1]; 1 mM): Clusters
Area % (percent of the area covered by HUVEC as observed by CD31 staining) [1, 6]: 2.8%
inhibition of angiogenesis compared with (S)-levamisole hydrochloride (1) [1]: more potent than (S)-levamisole hydrochloride
concentration at which the cluster-inducing effect is already exerted (titration) ([1]; titration experiments, Figure 6F): 30 µM
IC50 [2]: > 2000 µM
IC50 [3]: 100 µM
SIRT1 inhib. (1 μM) ([4]; 1 μM): Not active^b
deacetylation compared to the control wells ([4]; at 10 μM and 100 μM, data not shown): elevated values of deacetylation
inhibition of SIRT1 deacetylase activity [4]: no inhibitory effect
activation of SIRT1 compared to resveratrol [5]: ruled out interaction with this regulatory enzyme

Compound: C[N+]1=C2SCCN2C[C@@H]1c1ccccc1 [Compound 7b, N-methyllevamisole trifluoroacetate]
Grading ([1]; 1 mM): ++++ (clusters with area <4%)
Morphology ([1]; 1 mM): Clusters
Area % (percent of the area covered by HUVEC as observed by CD31 staining) [1, 6]: 3.3%
inhibition of angiogenesis compared with (S)-levamisole hydrochloride (1) [1]: more potent than (S)-levamisole hydrochloride
IC50 [2]: > 2000 µM
IC50 [3]: > 2000 µM
inhibition of tissue non-specific alkaline phosphatase ([3]; at 2 mM or higher): no inhibition

Compound: CC[N+]1=C2SCCN2C[C@@H]1c1ccccc1 [Compound 8a, N-ethyllevamisole iodide]
Area % (percent of the area covered by HUVEC as observed by CD31 staining) ([1]; 0.7 mM): 5.2%
Grading ([1]; 0.7 mM): +
Morphology ([1]; 0.7 mM): Mixed
IC50 [2]: > 2000 µM
IC50 [3]: > 2000 µM

Compound: CC[N+]1=C2SCCN2C[C@@H]1c1ccccc1 [Compound 8b, N-ethyllevamisole trifluoroacetate]
Area % (percent of the area covered by HUVEC as observed by CD31 staining) ([1]; 0.2 mM): 5.4%
Grading ([1]; 0.2 mM): +
Morphology ([1]; 0.2 mM): Mixed

Compound: CC(C)[N+]1=C2SCCN2C[C@@H]1c1ccccc1 [Compound 9, (S)-N-Isopropyllevamisole trifluoroacetate]
Area % (percent of the area covered by HUVEC as observed by CD31 staining) ([1]; 0.6 mM): 2.6%
Grading ([1]; 0.6 mM): +
Morphology ([1]; 0.6 mM): Mixed
IC50 [2]: > 2000 µM
IC50 [3]: > 2000 µM

Compound: CCCC[N+]1=C2SCCN2C[C@@H]1c1ccccc1 [Compound 10, (S)-N-(n-Butyl)-levamisole trifluoroacetate]
Area % (percent of the area covered by HUVEC as observed by CD31 staining) ([1]; 0.3 mM): 5.0%
Grading ([1]; 0.3 mM): +
Morphology ([1]; 0.3 mM): Mixed

Compound: c1ccc(C[N+]2=C3SCCN3C[C@@H]2c2ccccc2)cc1 [Compound 11a, N-benzyllevamisole bromide]
Area % (percent of the area covered by HUVEC as observed by CD31 staining) ([1]; 0.7 mM): 2.8%
Grading ([1]; 0.7 mM): +
Morphology ([1]; 0.7 mM): Mixed

Compound: c1ccc(C[N+]2=C3SCCN3C[C@@H]2c2ccccc2)cc1 [Compound 11b, N-benzyllevamisole trifluoroacetate]
Area % (percent of the area covered by HUVEC as observed by CD31 staining) ([1]; 0.4 mM): 4.0%
Grading ([1]; 0.4 mM): +
Morphology ([1]; 0.4 mM): Mixed
IC50 [2]: > 2000 µM
IC50 [3]: > 2000 µM

IC50 [2]: > 2000 µM
IC50 [3]: > 2000 µM
Compound: c1ccc([C@H]2CN3CCSC3=[N+]2CC2CCCCC2)cc1 [Compound 12, (S)-N-Cyclohexylmethylenelevamisole]
Area % (percent of the area covered by HUVEC as observed by CD31 staining) ([1]; 0.1 mM): 3.7%
Grading ([1]; 0.1 mM): +
Morphology ([1]; 0.1 mM): Mixed

Compound: O=S(=O)(O)CCN1CCN(CCO)CC1 [HEPES, reference compound]
effect in the angiogenesis assay [1, 7]: neither showed an effect

Compound: Cn1ccnc1 [N-methylimidazole, reference compound]
effect in the angiogenesis assay ([1]; 1 mM): no effect
effect in the angiogenesis assay ([1]; 10 mM): had an effect

Compound: O=C(O)CNC(CO)(CO)CO [TRICINE, reference compound]
effect in the angiogenesis assay [1, 7]: neither showed an effect

Compound: NC(CO)(CO)CO [TRIZMA, reference compound]
effect in the angiogenesis assay [1, 7]: neither showed an effect
